One assay relates to Bemisia tabaci. Kind of assay: Bemisia tabaci leaf dip test (brinjal leaves, whitefly adults). It counts as in vivo. The following applies: foliar, dead and moribund whitefly adults 72 h after release, compared to untreated controls, read-out: percent mortality. As for the experimental part:
The leaf dip method was used for testing, wherein the required quantity of the compound was weighed and dissolved in a tube containing a solvent solution. The tube was put on a vortex at 2000 rpm for proper mixing and then diluted with a 0.01% Triton-X solution to the desired test concentration. Brinjal leaves were dipped in the compound solution for 10 seconds; shade dried for 20 min and then placed, with the abaxial side of the leaf up, on 4 ml of a solidified 1% agar-agar solution in respective container caps. Known numbers of freshly emerged whitefly adults were collected, using a modified aspirator, and released into a perforated container in which the cap containing the treated leaf was placed. The containers were kept in a plant growth chamber at a temperature of 25° C. and relative humidity of 70%. Observations on dead, moribund and alive adults were recorded 72 h after the release. Percent mortality was calculated by combining dead and moribund adults and comparing the result to the one of the untreated controls. The compounds 1 9 11 18 25 28 29 30 31

Another assay deals with Nilaparvata lugens. Nature of the assay: Nilaparvata lugens seedling dip test (paddy seedlings, third instar nymphs). It counts as in vivo. The following applies: dead and moribund third instar nymphs 72 h after release, compared to untreated controls, read-out: percent mortality. On the procedure: The seedling dip method was used for testing, wherein the required quantity of the compound was weighed and dissolved in a tube containing a solvent solution. The tube was put on a vortex at 2000 rpm for proper mixing and then diluted with a 0.01% Triton-X solution to the desired test concentration. Paddy seedlings were dipped in the compound solution for 10 seconds, shade dried for 20 min and then the seedlings were placed in glass test tubes with the roots kept in water. 15 third instar nymphs of Nilaparvata lugens were released into each test tube and the tubes were kept in a plant growth chamber at a temperature of 25° C. and relative humidity of 75%. Observations on dead, moribund and alive nymphs were recorded 72 h after the release. Percent mortality was calculated by combining dead and moribund nymphs and comparing the result to the one of the untreated controls. The compounds

Consider `N=S(=O)(CC1CC1)c1ccc2nn(-c3cncnc3)cc2c1` (stereo not shown) [Compound 450, (cyclopropylmethyl)(imino)(2-(pyrimidin-5-yl)-2H-indazol-5-yl)-λ^6-sulfanone], for which the mortality at 300 ppm with Bemisia tabaci and with Nilaparvata lugens was not below 70% in each case.
With `CS(C)(=O)=Nc1ccc2nn(-c3cncnc3)cc2c1` [Compound 9], the mortality at 300 ppm in the assay on Bemisia tabaci and with Nilaparvata lugens was not below 70% throughout.
As to `CN=S(=O)(CC1CC1)c1ccc2nn(-c3cncnc3)cc2c1` (stereo not shown) [Compound 447], the mortality at 300 ppm in the assay on Bemisia tabaci and in the assay on Nilaparvata lugens was not below 70% each time.
As for `CS(=N)(=O)c1ccc2nn(-c3cncnc3)cc2c1` (stereo not shown) [Compound 470, imino(methyl)(2-(pyrimidin-5-yl)-2H-indazol-5-yl)-λ^6-sulfanone], the mortality at 300 ppm in the assay with Bemisia tabaci and in the assay on Nilaparvata lugens was not below 70% each time.
Consider `CCS(=O)(=NC(C)=O)c1ccc2nn(-c3cncc(F)c3)cc2c1` (stereo not shown) [Compound 462], for which the mortality at 300 ppm with Bemisia tabaci and in the assay on Nilaparvata lugens was not below 70% each time.
Consider `CC(C)S(=O)(CCC(F)(F)F)=Nc1cccc2nn(-c3cncc(F)c3)cc12` (stereo not shown) [Compound 104], for which the mortality at 300 ppm in the assay on Bemisia tabaci and in the assay with Nilaparvata lugens was not below 70% each time.
Take `CCN=S(C)(=O)c1ccc2nn(-c3cncnc3)cc2c1` (stereo not shown) [Compound 474]: the mortality at 300 ppm in the assay on Bemisia tabaci and with Nilaparvata lugens was not below 70% each time.
In the case of `CCCCCS(C)(=O)=Nc1ccc2nn(-c3cncnc3)cc2c1` (stereo not shown) [Compound 33], the mortality at 300 ppm with Bemisia tabaci and in the assay on Nilaparvata lugens was not below 70% in each case.
In the case of `O=S(CC1CC1)(=NC1CC1)c1ccc2nn(-c3cncnc3)cc2c1` (stereo not shown) [Compound 446], the mortality at 300 ppm in the assay with Bemisia tabaci and in the assay with Nilaparvata lugens was not below 70% each time.
With `CCN=S(=O)(CC)c1ccc2nn(-c3cccnc3)cc2c1` (stereo not shown) [Compound 391], the mortality at 300 ppm in the assay with Bemisia tabaci and with Nilaparvata lugens was not below 70% throughout.
Turning to `CC(=O)N=S(C)(=O)c1ccc2nn(-c3cncnc3)cc2c1` (stereo not shown) [Compound 475], the mortality at 300 ppm with Bemisia tabaci and in the assay on Nilaparvata lugens was not below 70% in each case.
Turning to `CC(C)S(=O)(=Nc1ccc2nn(-c3cccnc3)cc2c1)c1ccc(F)cc1` (stereo not shown) [Compound 38], the mortality at 300 ppm in the assay with Bemisia tabaci and with Nilaparvata lugens was not below 70% in each case.
As to `CCOc1nn(-c2ccc3nn(-c4cccnc4)cc3c2)c(=O)n1Cc1ccccc1F` [Compound 358, 5-ethoxy-4-(2-fluorobenzyl)-2-(2-(pyridin-3-yl)-2H-indazol-5-yl)-2,4-dihydro-3H-1,2,4-triazol-3-one], the mortality at 300 ppm in the assay on Bemisia tabaci and with Nilaparvata lugens was not below 70% throughout.
In the case of `CS(C)(=O)=Nc1cccc2nn(-c3cccnc3)cc12` [Compound 72], the mortality at 300 ppm in the assay with Bemisia tabaci and in the assay with Nilaparvata lugens was not below 70% each time.
Turning to `Cc1ccc(S(=O)(=Nc2ccc3nn(-c4cccnc4)cc3c2)N(C)C)cc1` (stereo not shown) [Compound 93, N,N,4-trimethyl-N′-(2-(pyridin-3-yl)-2H-indazol-5-yl)benzenesulfonimidamide], the mortality at 300 ppm with Bemisia tabaci and in the assay with Nilaparvata lugens was not below 70% in each case.
For the compound `CCS(=O)(CC)=Nc1ccc2nn(-c3cncnc3)cc2c1` [Compound 11], the mortality at 300 ppm in the assay with Bemisia tabaci and in the assay with Nilaparvata lugens was not below 70% each time.
As for `CCCCS(=N)(=O)c1ccc2nn(-c3cccnc3)cc2c1` (stereo not shown) [Compound 385, butyl(imino)(2-(pyridin-3-yl)-2H-indazol-5-yl)-λ^6-sulfanone], the mortality at 300 ppm with Bemisia tabaci and in the assay on Nilaparvata lugens was not below 70% in each case.

By mortality is commonly meant the share of the test organisms that died.

The record behind these values is patent US20250282754A1, “BICYCLIC COMPOUNDS AND THEIR USE AS PEST CONTROL AGENTS” (Pl Industries Ltd., priority 2022, published 2025).
